Series [1] in a line: Lipophilicity, log D of the compound at pH 7.4. The series is classed as physicochemical. The settings on record: buffer.
Series [2] concerns the target T1, Tyrosine-protein kinase receptor TYRO3 (Homo sapiens, UniProt Q06418).
T1 sequence (Q06418 whole entry): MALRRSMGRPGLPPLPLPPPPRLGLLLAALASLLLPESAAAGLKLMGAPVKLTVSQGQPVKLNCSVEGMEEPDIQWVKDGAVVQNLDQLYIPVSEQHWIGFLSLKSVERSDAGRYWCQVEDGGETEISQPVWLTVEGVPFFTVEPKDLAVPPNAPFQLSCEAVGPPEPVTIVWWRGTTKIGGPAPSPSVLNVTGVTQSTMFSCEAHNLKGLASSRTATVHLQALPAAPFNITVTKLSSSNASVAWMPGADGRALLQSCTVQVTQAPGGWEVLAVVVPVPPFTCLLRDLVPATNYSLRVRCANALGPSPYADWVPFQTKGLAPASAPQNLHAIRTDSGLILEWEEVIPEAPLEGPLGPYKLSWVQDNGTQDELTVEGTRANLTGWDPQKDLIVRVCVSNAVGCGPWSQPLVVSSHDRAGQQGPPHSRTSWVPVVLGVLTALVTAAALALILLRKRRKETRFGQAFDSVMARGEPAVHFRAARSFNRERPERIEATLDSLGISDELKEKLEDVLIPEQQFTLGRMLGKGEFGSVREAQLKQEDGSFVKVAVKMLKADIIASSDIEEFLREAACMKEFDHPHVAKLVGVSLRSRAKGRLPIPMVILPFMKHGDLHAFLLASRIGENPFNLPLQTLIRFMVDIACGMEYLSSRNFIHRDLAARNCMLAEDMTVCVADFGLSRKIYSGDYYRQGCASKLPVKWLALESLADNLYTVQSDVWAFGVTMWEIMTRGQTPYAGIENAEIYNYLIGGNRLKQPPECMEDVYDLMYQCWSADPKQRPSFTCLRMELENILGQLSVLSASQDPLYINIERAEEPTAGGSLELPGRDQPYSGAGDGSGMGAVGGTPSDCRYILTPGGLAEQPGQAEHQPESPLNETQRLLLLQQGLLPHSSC
Nature of the series: Inhibition of FLAG-tagged Tyro3 (unknown origin) transfected in Cos-7 cells assessed as phosphorylation level incubated for 1 hr by ELISA. It counts as cell-based. For orientation: ELISA stands for enzyme-linked immunosorbent assay.

Series [3] has as its target T2, Tyrosine-protein kinase receptor UFO (Homo sapiens, UniProt P30530).
T2 sequence (P30530 whole entry): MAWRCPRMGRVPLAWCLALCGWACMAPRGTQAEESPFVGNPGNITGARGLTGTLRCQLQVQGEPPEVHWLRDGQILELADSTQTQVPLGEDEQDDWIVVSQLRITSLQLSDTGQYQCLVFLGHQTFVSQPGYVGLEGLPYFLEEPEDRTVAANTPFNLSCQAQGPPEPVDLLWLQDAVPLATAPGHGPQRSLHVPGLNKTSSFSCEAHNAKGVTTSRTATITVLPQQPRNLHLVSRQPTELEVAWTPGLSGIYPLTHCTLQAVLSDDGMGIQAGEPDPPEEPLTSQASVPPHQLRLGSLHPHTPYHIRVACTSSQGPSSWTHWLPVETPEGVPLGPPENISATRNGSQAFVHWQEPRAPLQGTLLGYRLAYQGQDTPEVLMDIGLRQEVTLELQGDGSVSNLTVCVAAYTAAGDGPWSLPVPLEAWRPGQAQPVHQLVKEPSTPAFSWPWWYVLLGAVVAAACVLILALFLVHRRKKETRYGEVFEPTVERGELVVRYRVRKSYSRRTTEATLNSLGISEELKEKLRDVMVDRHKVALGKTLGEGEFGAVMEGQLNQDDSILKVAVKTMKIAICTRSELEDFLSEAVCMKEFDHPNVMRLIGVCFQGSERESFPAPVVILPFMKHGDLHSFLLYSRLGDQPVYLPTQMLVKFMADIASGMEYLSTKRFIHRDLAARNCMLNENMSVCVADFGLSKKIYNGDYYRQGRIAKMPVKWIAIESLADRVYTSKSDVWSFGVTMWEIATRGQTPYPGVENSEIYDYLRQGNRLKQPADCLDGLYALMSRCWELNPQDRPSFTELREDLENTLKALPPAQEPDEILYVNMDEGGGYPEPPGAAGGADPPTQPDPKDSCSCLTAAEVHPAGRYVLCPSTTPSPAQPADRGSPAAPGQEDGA
The series can be described thus: Inhibition of FLAG-tagged AXL (unknown origin) transfected in Cos-7 cells assessed as phosphorylation level incubated for 1 hr by ELISA. It counts as cell-based.

Series [4] has as its target T3, Receptor-type tyrosine-protein kinase FLT3 (Homo sapiens, UniProt P36888).
T3 sequence (P36888 whole entry): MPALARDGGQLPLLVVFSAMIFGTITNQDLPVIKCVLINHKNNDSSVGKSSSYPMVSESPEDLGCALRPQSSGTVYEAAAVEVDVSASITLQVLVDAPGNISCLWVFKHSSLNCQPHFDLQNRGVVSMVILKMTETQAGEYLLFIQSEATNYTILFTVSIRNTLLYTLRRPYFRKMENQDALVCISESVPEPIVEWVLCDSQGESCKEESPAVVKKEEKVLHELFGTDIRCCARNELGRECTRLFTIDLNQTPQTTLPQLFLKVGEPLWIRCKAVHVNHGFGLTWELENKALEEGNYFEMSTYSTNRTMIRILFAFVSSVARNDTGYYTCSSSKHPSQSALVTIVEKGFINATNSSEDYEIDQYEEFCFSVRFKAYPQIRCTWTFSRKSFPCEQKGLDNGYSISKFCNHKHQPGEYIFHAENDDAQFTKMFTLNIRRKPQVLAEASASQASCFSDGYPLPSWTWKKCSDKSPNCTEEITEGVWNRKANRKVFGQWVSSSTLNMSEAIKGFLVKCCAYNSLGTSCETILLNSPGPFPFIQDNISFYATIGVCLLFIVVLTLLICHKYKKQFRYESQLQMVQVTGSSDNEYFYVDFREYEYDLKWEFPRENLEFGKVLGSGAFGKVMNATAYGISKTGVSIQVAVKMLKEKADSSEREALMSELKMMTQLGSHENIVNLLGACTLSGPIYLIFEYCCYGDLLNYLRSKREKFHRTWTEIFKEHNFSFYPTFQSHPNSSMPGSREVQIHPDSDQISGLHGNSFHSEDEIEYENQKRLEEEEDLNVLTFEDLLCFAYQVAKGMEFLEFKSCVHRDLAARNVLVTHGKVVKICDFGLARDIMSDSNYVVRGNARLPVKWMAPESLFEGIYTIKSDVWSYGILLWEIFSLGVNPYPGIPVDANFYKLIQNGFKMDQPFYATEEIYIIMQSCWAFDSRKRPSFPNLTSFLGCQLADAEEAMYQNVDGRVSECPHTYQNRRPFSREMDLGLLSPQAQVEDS
Nature of the series: Inhibition of FLAG-tagged FLT3 (unknown origin) transfected in Cos-7 cells assessed as phosphorylation level incubated for 1 hr by ELISA. The series is classed as cell-based.

Series [5] can be described thus: Induction efferocytosis in human PBMC assessed as CD14-positive monocytes.
For series [6], the target named is T4, Tyrosine-protein kinase Mer (Homo sapiens, UniProt Q12866).
T4 sequence (Q12866 whole entry): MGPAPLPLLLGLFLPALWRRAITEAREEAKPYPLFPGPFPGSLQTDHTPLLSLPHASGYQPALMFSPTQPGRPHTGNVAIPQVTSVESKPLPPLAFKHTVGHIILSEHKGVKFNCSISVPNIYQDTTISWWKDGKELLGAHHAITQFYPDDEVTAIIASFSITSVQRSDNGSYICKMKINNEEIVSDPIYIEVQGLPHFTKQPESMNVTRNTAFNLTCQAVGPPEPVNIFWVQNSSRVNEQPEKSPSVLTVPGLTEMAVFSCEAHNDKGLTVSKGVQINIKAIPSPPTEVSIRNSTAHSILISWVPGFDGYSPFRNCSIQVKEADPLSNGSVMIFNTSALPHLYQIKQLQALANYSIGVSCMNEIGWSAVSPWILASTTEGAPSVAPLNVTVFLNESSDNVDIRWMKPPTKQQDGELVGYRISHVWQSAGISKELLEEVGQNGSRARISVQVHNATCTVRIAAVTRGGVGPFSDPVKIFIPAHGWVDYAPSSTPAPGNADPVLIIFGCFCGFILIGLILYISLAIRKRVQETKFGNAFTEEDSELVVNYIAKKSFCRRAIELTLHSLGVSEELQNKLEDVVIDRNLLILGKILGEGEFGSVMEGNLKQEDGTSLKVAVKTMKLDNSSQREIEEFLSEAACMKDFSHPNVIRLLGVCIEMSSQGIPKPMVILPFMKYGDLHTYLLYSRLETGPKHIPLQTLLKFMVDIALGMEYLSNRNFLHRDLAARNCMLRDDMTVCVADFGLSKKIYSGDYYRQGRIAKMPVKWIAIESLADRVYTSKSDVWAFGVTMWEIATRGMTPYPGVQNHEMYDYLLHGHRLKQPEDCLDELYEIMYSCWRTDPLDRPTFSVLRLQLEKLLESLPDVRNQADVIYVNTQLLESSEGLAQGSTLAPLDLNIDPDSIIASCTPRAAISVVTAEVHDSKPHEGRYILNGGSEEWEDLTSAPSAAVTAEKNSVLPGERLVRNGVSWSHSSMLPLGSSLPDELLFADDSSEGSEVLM
Nature of the series: Inhibition of MER (unknown origin) by LC-MS analysis.

For series [7], the target named is T2, Tyrosine-protein kinase receptor UFO. The series can be described thus: Inhibition of AXL (unknown origin) by LC-MS analysis.
Series [8] has as its target T3, Receptor-type tyrosine-protein kinase FLT3. Nature of the series: Inhibition of FLT3 (unknown origin) by LC-MS analysis.
Series [9] can be described thus: Photostability of compound assessed as half life. The series is classed as physicochemical.

One may read the logD as the decadic logarithm of the distribution of all forms, ionised or not, between an organic phase and buffer at a given pH. For orientation: IC50 means the concentration that gives 50% inhibition. By pIC50 is commonly meant −log10 of the IC50, conventionally taken in molar units. Consider `Cc1cc(-c2c(C)nn(C)c2C)cnc1-c1nnc(N(C)Cc2ccc3ncc(-c4cccc(CN(C)C)c4)n3c2)o1`, for which, in series [1], the log distribution coefficient (logD) is 3. Moreover, the IC50 was over 31.6 µM in [2], 0.316 µM in [3] and over 31.6 µM in [4]. In addition, the pIC50 in series [5] worked out at 7.
`Cc1nn(C)c(C)c1-c1ccc(-c2nnc(N(C)Cc3ccc4nccn4c3)o2)c(C#N)c1` registered a logD in series [1] of 2.9. In addition, the IC50 in series [6] is 100 µM; in series [3] it was over 31.6 µM; in series [7] it was over 100 µM; in series [4], over 31.6 µM; in series [8], 79.4 µM.
In the case of `Cc1cc(-c2c(C)nn(C(F)F)c2C)ccc1-c1nnc(N(C)Cc2ccc3nccn3c2)o1`, in [1], the logD amounted to 4.1. Besides, the IC50 was 0.501 µM in series [6]; over 10 µM in series [3]; 63.1 µM in [7]; over 31.6 µM in series [4]; 100 µM in series [8].
In turn, `Cc1cc(-c2c(C)nn(C)c2C)cnc1-c1nnc(N(C)Cc2ccc3ncc(-c4ccc(CN(C)C)cn4)n3c2)o1` came in with a log distribution coefficient (logD) in series [1] of 3. Besides, the concentration for half-maximal inhibition (IC50) in series [2] was over 31.6 µM; in [3], 0.126 µM; in series [4] it was 25.1 µM. Also, the pIC50 in series [5] was 7.2.
Turning to `Cc1nc(-c2c(C)nn(C)c2C)ccc1-c1nnc(N(C)Cc2ccc3nccn3c2)o1`, the logD in [1] worked out at 2.5. For the same compound, the IC50 in series [6] is 0.0631 µM; in series [3] it was 10 µM; in [7] it was 3.16 µM; in series [4], over 31.6 µM; in [8] it was over 100 µM.
As a reminder, the half-life is how long it takes for the measured level to halve. With `Cc1cc(-c2c(C)nn(C)c2C)ccc1-c1nnc(N(C)Cc2ccc3ncc(-c4cnn(C)c4)n3c2)o1`, in [9], the half-life was 11.4 days. The compound also had a logD in series [1] of 4. Moreover, the IC50 in series [2] is 12.6 µM; in series [3], 0.0631 µM; in [4], 12.6 µM. For the same compound, the pIC50 in [5] is reported as 7.2.
In series [1], `Cc1nn(C)c(C)c1-c1ccc(-c2nnc(N(C)Cc3ccc4nccn4c3)o2)c(Cl)c1` yielded a logD of 3.3. The IC50 in series [6] is 0.00251 µM; in series [3], 0.794 µM; in series [7] it was 0.0794 µM; in [4], over 31.6 µM; in series [8], 20 µM.
Regarding `Cc1cc(-c2c(C)nn(C)c2C#N)ccc1-c1nnc(N(C)Cc2ccc3nccn3c2)o1`, in [1], the log distribution coefficient (logD) worked out at 3.8. For the same compound, the IC50 in [6] was 0.00158 µM; in series [3], 0.398 µM; in series [7], 0.0398 µM; in series [4], over 31.6 µM; in series [8], 15.8 µM.
For the compound `Cc1cc(-c2c(C)nn(C)c2C)ccc1-c1nnc(N(C)Cc2ccc3ncc(C(=O)N(C)C)n3c2)o1`, the half-life in series [9] is 17.8 days. The log distribution coefficient (logD) in [1] was 3.3. In addition, the IC50 in series [2] is 25.1 µM; in series [3] it was 0.398 µM; in [4] it was 10 µM. Further, the pIC50 in series [5] was found to be 7.1.
On to `Cc1cc(-c2c(C)nn(C)c2C)cnc1-c1nnc(N(C)Cc2ccc3ncc(-c4cnn(CCN(C)C)c4)n3c2)o1`, for which the logD in series [1] worked out at 2.7. The IC50 in [2] was over 31.6 µM; in [3], 1 µM; in series [4] it was over 31.6 µM. Moreover, the pIC50 in series [5] is given as 7.1.
Compound `Cc1cc(-c2c(C)nn(C)c2C)cnc1-c1nnc(N(C)Cc2ccc3ncc(-c4ccc(CN(C)C)nc4)n3c2)o1` showed a logD in series [1] of 2.5. For the same compound, the IC50 is over 31.6 µM in [2], 1.58 µM in series [3] and over 31.6 µM in series [4].
For `Cc1cc(-c2c(C)nn(C)c2C)ccc1-c1nnc(N(C)Cc2ccc3ncc(-c4cnn(CCN(C)C)c4)n3c2)o1`, the log distribution coefficient (logD) in series [1] came out at 3.5. Moreover, the IC50 is 12.6 µM in [2], 0.126 µM in series [3] and over 31.6 µM in series [4]. Also, in series [5], the pIC50 came to 7.8.
For `Cc1cc(-c2c(C)nn(C)c2C)ccc1-c1nnc(N(C)Cc2ccc3ncc(C4CCN(C)CC4)n3c2)o1` the same measures were 2.5, over 31.6 µM, 1.26 µM, over 31.6 µM and 6.9.
